Measured values: patent publication US20260083697A1, “COMPOSITION AND USE OF SAME FOR CONTROLLING INFECTIONS IN AQUATIC ORGANISMS” (priority 2022, published 2026)

How the values were obtained:
fish = test: Toxicity of commercial fatty acid ethyl esters to fish over 48 h; format: in vivo; conditions: at least 48 h
Gyrodactylus turnbulli = format: cell-based; conditions: for antiparasitic activity of pure commercial ethyl ester: commercial ethyl ester form, Kolliphor and sonication
Excerpt: FIGS. 2A-2C include graphs showing antiparasitic effect of residue extract and preparations (FFA & FAEE) with and without the addition of the food-grade detergent Kolliphor (K) and sonication(S) prior to analysis. […] Gyrodactylus turnbulli was exposed to the following preparations: (2A) residue extract (RE) and RE with Kolliphor and sonication (RE-K-S); (2B) FFA and FFA with Kolliphor and sonication (FFA-K-S); and (2C) FAEE with Kolliphor and sonication (FAEE-K-S). The numbers represent the tested concentrations of the solution applied at μL mL^−1. n=3 wells with at least five observed parasites per well.
FIG. 5 includes a vertical bar graph showing dose-dependent antiparasitic effect of fatty acids in their ethyl ester form as tested in situ. Selected were the four FAs that appeared at the highest level in the residue and its extracts and preparations, as pure commercial compounds: myristic acid (14:0), palmitic acid (16:0), palmitoleic acid (16:1n7), and EPA (20:5n3). The analysis was carried out with the addition of Kolliphor (K) and sonication (S). Time to reach 50% parasite mortality was recorded.
FIG. 11A-11B include graphs showing in-situ antiparasitic effect against Gyrodactylus by commercial FAEEs. Gyrodactylus was exposed by commercial FAEEs at 18.75, 37.5, and 75 μM along with addition of 1% Kolliphor (K) and sonication(S).
An in-situ assay was carried out, as described previously (Kim et al., 2021). Briefly, infected guppies (as confirmed by observation under a stereomicroscope (Richards and Chubb 1996)) were anesthetized with 250 ppm of Sedanol (Stockton-Aquamor Ltd., Israel) (Zorin et al., 2019) followed by euthanasia (brain pithing). Tail fin clips with more than four parasites were excised and transferred, using watchmaker's forceps, to a single well of a 24-well plate containing standardized water (STW: dechlorinated tap water with Na2S2O3 at 0.37 mg L^−1 followed by autoclaving). Ethanol and STW, as well as the relevant solvents and preparation protocol used for extraction, were used as negative controls in each trial. Parasites were observed under an inverted microscope (Axiovert 40 CFL, Carl Zeiss AG) for 4 h, at intervals ranging from 5 to 30 min, during which detached and dead parasites were recorded. A total of 12-15 parasites (with three replicates) were analyzed for each treatment concentration.
Residue extract and preparations were tested at the following concentrations: residue extract at 2.5, 5 and 10 μL mL^−1, and FFA and FAEE at 2.5 and 5 μL mL^−1 (in ethanol). Selected pure active compounds were analyzed, based on the analysis of the FAEE composition. These included the ethyl esters of the following fatty acids: myristic acid (14:0), palmitic acid (16:0), palmitoleic acid (16:1n7), and EPA ([…]) (obtained from Nu-Check, USA). Tested concentrations were calculated based on the amount of active compound in the FA profile of ethyl esters according to the GC-results.

| SMILES | toxicity to fish (fish; 7.3 μM to 14.5 μM) | antiparasitic activity of pure commercial ethyl ester (Gyrodactylus turnbulli) | other results |
| --- | --- | --- | --- |
| CCCCCCCCCC(=O)OCC [10:0, ethyl decanoate] |  |  | toxicity to fish (fish; 18.75 μM to 37.5 μM): non-toxic |
| CCCCCCCCC(=O)OCC [9:0, ethyl nonanoate] |  |  | toxicity to fish (fish; 18.75 μM to 37.5 μM): non-toxic |
| CC/C=C\C/C=C\C/C=C\CCCCCCCC(=O)OCC [18:3n3, ethyl alpha linolenate] | non-toxic |  |  |
| CCCCCCCCCCCCCC(=O)OCC [14:0, ethyl myristate] | non-toxic | activity |  |
| CC/C=C\C/C=C\C/C=C\C/C=C\C/C=C\CCCC(=O)OCC [20:5n3] | non-toxic | activity | effect on the parasite at low concentrations (Gyrodactylus turnbulli; 3 and 6 μL mL^−1): inducing parasite mortality; dose dependence of antiparasitic effect (Gyrodactylus turnbulli; 3 to 24 μL mL^−1): dose-dependent effect; relative activity (time to 50% parasite mortality) (Gyrodactylus turnbulli; 12 and 24 μL mL^−1, compared with the other three FAEEs): most active |
| CCCCC/C=C\C/C=C\CCCCCCCC(=O)OCC [18:2n6, ethyl linoleate] | non-toxic |  |  |
| CCCCC/C=C\C/C=C\C/C=C\CCCCC(=O)OCC [18:3n6, ethyl gamma linolenate] | non-toxic |  |  |
| CCCCCCCCCCCCCCCC(=O)OCC [16:0, ethyl palmitate] | non-toxic | activity |  |
| CCCCCCCCCCCC(=O)OCC [12:0, ethyl laurate] |  |  | toxicity to fish (fish; 9.375 μM to 37.5 M): non-toxic |
